Drawing on patent US9416128B2, “Fused heterocyclic compounds as ion channel modulators” (Gilead Sciences, Inc., priority 2013, dated 2016), this text covers inhibition for 14 molecules.

SMILES strings stand for the structures.

Assay [1] addresses hNaV1.1 (SCN1A) (Homo sapiens, UniProt P35498). The assay can be described thus: Use-dependent inhibition of the CNS NaV1.1 sodium channel. The assay is classed as cell-based. The note with it: % inhibition, 25 Hz; for inhibition at 1 µM: use-dependent block at 1 uM, read-out: Nav1.1 UDB 25 Hz 1 uM; for inhibition at 10 µM: use-dependent block at 10 uM, read-out: Nav1.1 UDB 25 Hz 10 uM. As for the experimental part:
HEK-293 cells stably expressing wild-type (WT) hNaV1.1 (SCN1A, NCBI# AB09354) were obtained from Millipore (Cat. # CYL3009) were used to record INa. Cells are maintained with standard tissue culture procedures and stable channel expression is maintained with 400 ug/mL G418 in the culture medium. Unless otherwise noted, all reagents are purchased from Sigma-Aldrich (St Louis, Mo., U.S.A.).
Assays measuring Use-Dependent Block (UDB) of NaV1.2 are performed on an automated electrophysiology platform, QPatch 16X or QPatch HT (Sophion Bioscience, Copenhagen, Denmark), using the whole cell patch clamp technique to measure currents through the cell membrane. Series resistance compensation is set to 100% and series resistance and whole-cell compensation are performed automatically. Currents stored in the Sophion Bioscience Oracle database (Sophion Bioscience, Copenhagen, Denmark). Analysis is performed using QPatch Assay software and data are compiled in Excel 2010 (Microsoft, Seattle, Wash., U.S.A.).
The internal (pipette) solution consists of (in mM) 105 CsF, 10 NaF, 20 CsCl, 2 EGTA, 10 HEPES, 10 Dextrose with a pH of 7.35 and osmolarity of 300 mOsmol/kg. The external (bath) solution contains in (mM): 145 NaCl, 4 KCl, 1.8 CaCl2, 1 MgCl2, 10 dextrose, 10 HEPES, with a pH of 7.35 and osmolarity of 310 mOsmol/kg. Experiments are carried out at 23-25° C.
(§1) Compound stocks are routinely made by the Gilead Sample Bank in vials to 10 mM in dimethyl sulfoxide (DMSO). In some cases, when compounds are not soluble in DMSO, they are made in 100% ethanol. Stocks are sonicated as necessary. […]
Cells are allowed to stabilize for 10 min after establishment of the whole-cell configuration before current is measured. The test compound is applied 2 times at 60 second intervals. After the second compound addition, a 200 second wait period was imposed to allow for equilibration.
Leak currents are subtracted by using an online P/4 procedure and all currents are low-pass Bessel filtered at 5 kHz and digitized at […].
Use-dependent block of NaV1.2 peak current is measured during pulse number 20 of a voltage pulse train (0 mV, 20 ms, 20 pulses, 25 Hz) from a holding potential of −120 mV. Currents are normalized to the peak current recorded in response to the first pulse in each frequency train. The voltage protocol for UDB was performed in the absence and presence of compound and percentage inhibition was calculated with respect to the compound free condition. Results are presented as mean percentage inhibition and data analysis is performed using QPatch Assay Software 4.0, and Excel 2002 (Microsoft, Seattle, Wash., U.S.A.).

The target in assay [2] is T1, hNaV1.2 (SCN2A) (Homo sapiens, UniProt Q99250).
T1 construct: expressed in transfected cells
T1 sequence (Q99250 whole entry): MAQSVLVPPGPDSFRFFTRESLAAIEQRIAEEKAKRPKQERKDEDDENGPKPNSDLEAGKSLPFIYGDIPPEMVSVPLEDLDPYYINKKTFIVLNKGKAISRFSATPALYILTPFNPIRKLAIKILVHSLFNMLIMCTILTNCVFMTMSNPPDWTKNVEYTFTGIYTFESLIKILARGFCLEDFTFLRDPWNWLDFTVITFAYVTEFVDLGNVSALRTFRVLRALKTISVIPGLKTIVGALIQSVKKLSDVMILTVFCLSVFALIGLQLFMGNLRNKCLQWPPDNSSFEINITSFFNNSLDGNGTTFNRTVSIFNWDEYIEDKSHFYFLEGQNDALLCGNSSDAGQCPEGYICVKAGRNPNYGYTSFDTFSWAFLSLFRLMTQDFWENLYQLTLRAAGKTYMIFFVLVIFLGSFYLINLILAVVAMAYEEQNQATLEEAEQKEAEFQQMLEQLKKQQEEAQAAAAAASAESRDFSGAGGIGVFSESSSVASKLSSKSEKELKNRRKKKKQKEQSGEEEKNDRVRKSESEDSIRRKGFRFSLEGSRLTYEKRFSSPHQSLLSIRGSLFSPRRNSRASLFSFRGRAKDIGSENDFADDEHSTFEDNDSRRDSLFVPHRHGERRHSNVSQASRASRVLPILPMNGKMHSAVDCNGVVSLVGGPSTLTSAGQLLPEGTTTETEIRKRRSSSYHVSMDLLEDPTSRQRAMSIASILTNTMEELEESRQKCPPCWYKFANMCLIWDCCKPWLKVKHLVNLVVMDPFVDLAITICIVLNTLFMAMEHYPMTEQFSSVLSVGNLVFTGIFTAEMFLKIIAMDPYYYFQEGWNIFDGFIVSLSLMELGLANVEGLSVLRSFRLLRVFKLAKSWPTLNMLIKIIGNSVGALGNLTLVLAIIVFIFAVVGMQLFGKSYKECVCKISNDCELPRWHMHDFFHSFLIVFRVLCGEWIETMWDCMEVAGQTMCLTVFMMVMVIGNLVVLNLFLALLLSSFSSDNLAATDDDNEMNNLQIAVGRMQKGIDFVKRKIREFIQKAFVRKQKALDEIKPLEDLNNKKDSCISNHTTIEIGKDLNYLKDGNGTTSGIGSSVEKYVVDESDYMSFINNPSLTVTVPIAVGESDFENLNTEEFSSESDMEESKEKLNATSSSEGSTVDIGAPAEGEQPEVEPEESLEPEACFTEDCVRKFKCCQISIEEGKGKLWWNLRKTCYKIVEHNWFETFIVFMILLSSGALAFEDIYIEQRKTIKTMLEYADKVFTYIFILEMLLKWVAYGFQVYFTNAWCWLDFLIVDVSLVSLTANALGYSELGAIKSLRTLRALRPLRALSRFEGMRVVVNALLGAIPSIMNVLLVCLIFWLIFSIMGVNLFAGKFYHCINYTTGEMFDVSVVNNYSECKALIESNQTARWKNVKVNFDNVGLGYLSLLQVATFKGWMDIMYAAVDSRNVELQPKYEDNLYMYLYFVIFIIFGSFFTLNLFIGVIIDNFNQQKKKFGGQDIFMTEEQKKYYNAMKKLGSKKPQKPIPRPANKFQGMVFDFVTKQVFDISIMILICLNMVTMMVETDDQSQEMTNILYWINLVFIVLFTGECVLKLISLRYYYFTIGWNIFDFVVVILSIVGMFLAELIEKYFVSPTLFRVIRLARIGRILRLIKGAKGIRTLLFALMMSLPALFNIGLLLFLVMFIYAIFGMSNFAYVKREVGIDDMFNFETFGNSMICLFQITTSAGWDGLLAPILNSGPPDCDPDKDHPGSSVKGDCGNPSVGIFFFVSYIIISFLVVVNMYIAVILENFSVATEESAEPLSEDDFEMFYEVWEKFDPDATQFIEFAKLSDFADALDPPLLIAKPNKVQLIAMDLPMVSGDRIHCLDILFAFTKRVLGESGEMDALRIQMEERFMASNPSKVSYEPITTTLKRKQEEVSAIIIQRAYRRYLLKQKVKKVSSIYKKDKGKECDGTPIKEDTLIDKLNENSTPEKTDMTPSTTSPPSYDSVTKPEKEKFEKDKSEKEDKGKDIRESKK
T1 sequence (Q07699 19-218 partner): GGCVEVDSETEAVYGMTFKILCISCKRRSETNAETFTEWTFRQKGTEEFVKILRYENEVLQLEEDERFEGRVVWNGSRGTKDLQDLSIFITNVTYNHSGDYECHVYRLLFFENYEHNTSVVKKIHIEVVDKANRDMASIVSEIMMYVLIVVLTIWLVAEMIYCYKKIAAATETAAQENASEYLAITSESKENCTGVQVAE
T1 sequence (O60939 30-215 partner): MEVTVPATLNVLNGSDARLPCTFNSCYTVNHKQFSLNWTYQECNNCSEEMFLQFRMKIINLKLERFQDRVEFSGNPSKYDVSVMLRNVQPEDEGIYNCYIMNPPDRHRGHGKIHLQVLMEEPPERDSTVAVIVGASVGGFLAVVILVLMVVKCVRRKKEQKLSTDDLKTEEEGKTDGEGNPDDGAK
The assay can be described thus: Use-dependent inhibition of the CNS NaV1.2 sodium channel. The assay is classed as cell-based. As to conditions: HEK-293, % inhibition, 25 Hz; for inhibition at 1 µM: use-dependent block at 1 uM, read-out: Nav1.2 UDB 25 Hz 1 uM; for inhibition at 10 µM: use-dependent block at 10 uM, read-out: Nav1.2 UDB 25 Hz 10 uM. As for the experimental part: HEK-293 cells stably expressing wild-type (WT) hNaV1.2 (SCN2A NCBI # NM_021007.2, SCN1B NCBI # NM_001037.4, SCN2B NCBI # NM_004588.2) were used to record INa. Cells are maintained with standard tissue culture procedures and stable channel expression is maintained with 800 ug/mL G418 and 3 ug/mL Puromycin in the culture medium. Unless otherwise noted, all reagents are purchased from Sigma-Aldrich (St Louis, Mo., U.S.A.).
Assays measuring Use-Dependent Block (UDB) of NaV1.2 are performed on an automated electrophysiology platform, QPatch 16X or QPatch HT (Sophion Bioscience, Copenhagen, Denmark), using the whole cell patch clamp technique to measure currents through the cell membrane. Series resistance compensation is set to 100% and series resistance and whole-cell compensation are performed automatically. Currents stored in the Sophion Bioscience Oracle database (Sophion Bioscience, Copenhagen, Denmark). Analysis is performed using QPatch Assay software and data are compiled in Excel 2010 (Microsoft, Seattle, Wash., U.S.A.). The internal (pipette) solution consists of (in mM) 105 CsF, 10 NaF, 20 CsCl, 2 EGTA, 10 HEPES, 10 Dextrose with a pH of 7.35 and osmolarity of 300 mOsmol/kg. The external (bath) solution contains in (mM): 145 NaCl, 4 KCl, 1.8 CaCl2, 1 MgCl2, 10 dextrose, 10 HEPES, with a pH of 7.35 and osmolarity of 310 mOsmol/kg. Experiments are carried out at 23-25° C.
as §1
Cells are allowed to stabilize for 10 min after establishment of the whole-cell configuration before current is measured. The test compound is applied 2 times at 60 second intervals. After the second compound addition, a 200 second wait period was imposed to allow for equilibration. Leak currents are subtracted by using an online P/4 procedure and all currents are low-pass Bessel filtered at 5 kHz and digitized at […].
Results are presented as mean percentage inhibition.
Use-dependent block of NaV1.2 peak current is measured during pulse number 20 of a voltage pulse train (0 mV, 20 ms, 20 pulses, 25 Hz) from a holding potential of −120 mV.
Currents are normalized to the peak current recorded in response to the first pulse in each frequency train. The voltage protocol for UDB was performed in the absence and presence of compound and percentage inhibition was calculated with respect to the compound free condition.
Data analysis is performed using QPatch Assay Software 4.0, and Excel 2002 (Microsoft, Seattle, Wash., U.S.A.).

Regarding `O=C1Oc2ccc(-c3ccc(C(F)(F)F)cc3)cc2CN1CCc1ncccn1` [Example 17, 3-(2-(pyrimidin-2-yl)ethyl)-6-(4-(trifluoromethyl)phenyl)-3,4-dihydro-2H-benzo[e][1,3]oxazin-2-one], in assay [1], the inhibition at 1 µM came to 34.8% and the inhibition at 10 µM was found to be 60.9%. Further, in assay [2], the inhibition at 1 µM worked out at 34.2% and the inhibition at 10 µM amounted to 56.6%.
For `COc1cc(OC(F)(F)F)ccc1-c1ccc2c(c1)CN(CCc1ncccn1)C(=O)O2` [Example 18, 6-(2-methoxy-4-(trifluoromethoxy)phenyl)-3-(2-(pyrimidin-2-yl)ethyl)-3,4-dihydro-2H-benzo[e][1,3]oxazin-2-one], in that order: 16.9%, 73.4%, 9.1% and 54.9%.
As for `CCCOc1cc(C(F)(F)F)ccc1-c1ccc2c(c1)CN(CCc1ncccn1)C(=O)O2` [Example 19, 6-(2-propoxy-4-(trifluoromethyl)phenyl)-3-(2-(pyrimidin-2-yl)ethyl)-3,4-dihydro-2H-benzo[e][1,3]oxazin-2-one], in assay [1], the inhibition at 1 µM was determined as 30.8% and the inhibition at 10 µM was determined as 78.4%. For the same molecule, in assay [2], the inhibition at 1 µM is 30.6% and the inhibition at 10 µM turned out to be 64%.
The corresponding values for `O=C1Oc2ccc(-c3ccc(OC(F)(F)F)cc3)cc2CN1Cc1ccccn1` [Example 20, 3-(pyridin-2-ylmethyl)-6-(4-(trifluoromethoxy)phenyl)-3,4-dihydro-2H-benzo[e][1,3]oxazin-2-one] are 29.1%, 82%, 30.2% and 69.8%.
The corresponding values for `O=C1Oc2ccc(-c3ccc(OC(F)(F)F)cc3F)cc2CN1Cc1ccccn1` [Example 21, 6-(2-fluoro-4-(trifluoromethoxy)phenyl)-3-(pyridin-2-ylmethyl)-3,4-dihydro-2H-benzo[e][1,3]oxazin-2-one] are under 5%, 50.8%, under 5% and 59.4%.
The corresponding values for `COc1cc(OC(F)(F)F)ccc1-c1ccc2c(c1)CN(Cc1ccccn1)C(=O)O2` [Example 22, 6-(2-methoxy-4-(trifluoromethoxy)phenyl)-3-(pyridin-2-ylmethyl)-3,4-dihydro-2H-benzo[e][1,3]oxazin-2-one] are under 5%, 56.3%, under 5% and 55.6%.
`Cc1cc(OC(F)(F)F)ccc1-c1ccc2c(c1)CN(Cc1ccccn1)C(=O)O2` [Example 23, 6-(2-methyl-4-(trifluoromethoxy)phenyl)-3-(pyridin-2-ylmethyl)-3,4-dihydro-2H-benzo[e][1,3]oxazin-2-one]: in assay [1], the inhibition at 1 µM worked out at 5.2% and the inhibition at 10 µM is 75.2%. For the same molecule, in assay [2], the inhibition at 1 µM was under 5% and the inhibition at 10 µM worked out at 56%.
The corresponding values for `O=C1Oc2ccc(-c3ccc(C(F)(F)F)cc3)cc2CN1Cc1ccccn1` [Example 24, 3-(pyridin-2-ylmethyl)-6-(4-(trifluoromethyl)phenyl)-3,4-dihydro-2H-benzo[e][1,3]oxazin-2-one] are 44.9%, 79.6%, 32.7% and 71.4%.
The corresponding values for `CC(C)Oc1cc(C(F)(F)F)ccc1-c1ccc2c(c1)CN(Cc1ncccn1)C(=O)O2` [Example 25, 6-(2-isopropoxy-4-(trifluoromethyl)phenyl)-3-(pyrimidin-2-ylmethyl)-3,4-dihydro-2H-benzo[e][1,3]oxazin-2-one] are 31.7%, 75.3%, 29.9% and 72.1%.
As to `O=C1Oc2ccc(-c3ccc4c(c3)OC(F)(F)O4)cc2CN1Cc1ncccn1` [Example 26, 6-(2,2-difluorobenzo[d][1,3]dioxol-5-yl)-3-(pyrimidin-2-ylmethyl)-3,4-dihydro-2H-benzo[e][1,3]oxazin-2-one], in assay [1], the inhibition at 1 µM is 14.8% and the inhibition at 10 µM is 66.1%. For the same molecule, in assay [2], the inhibition at 1 µM amounted to 28% and the inhibition at 10 µM is 71.1%.
For `CCCOc1cc(C(F)(F)F)ccc1-c1ccc2c(c1)CN(Cc1ncccn1)C(=O)O2` [Example 27, 6-(2-propoxy-4-(trifluoromethyl)phenyl)-3-(pyrimidin-2-ylmethyl)-3,4-dihydro-2H-benzo[e][1,3]oxazin-2-one], in that order: 28.4%, 77.5%, 42.2% and 80.6%.
The corresponding values for `CCCOc1cc(OC(F)(F)F)ccc1-c1ccc2c(c1)CN(Cc1ncccn1)C(=O)O2` [Example 28, 6-(2-propoxy-4-(trifluoromethoxy)phenyl)-3-(pyrimidin-2-ylmethyl)-3,4-dihydro-2H-benzo[e][1,3]oxazin-2-one] are 25.2%, 67.4%, 17.1% and 58%.
The corresponding values for `Cc1ccnc(CN2Cc3cc(-c4ccc(OC(F)(F)F)cc4)ccc3OC2=O)n1` [Example 29, 3-((4-methylpyrimidin-2-yl)methyl)-6-(4-(trifluoromethoxy)phenyl)-3,4-dihydro-2H-benzo[e][1,3]oxazin-2-one] are 44.7%, 86.8%, 36.1% and 81.7%.
`Cc1ccnc(CN2Cc3cc(-c4ccc(C(F)(F)F)cc4)ccc3OC2=O)n1` [Example 30, 3-((4-methylpyrimidin-2-yl)methyl)-6-(4-(trifluoromethyl)phenyl)-3,4-dihydro-2H-benzo[e][1,3]oxazin-2-one]: in assay [1], the inhibition at 1 µM worked out at 49.7% and the inhibition at 10 µM came out at 87.5%. Also, in assay [2], the inhibition at 1 µM worked out at 47.1% and the inhibition at 10 µM turned out to be 79.6%.
